Tested on: 935938-334-R-J1-PDC spheroids with HUVEC/MSC, viability
Assay: Anticancer human tumor 935938-334-R-J1-PDC patient-derived small intestine adenocarcinoma cell line growth inhibition [PI3K]
Details: for IC50: curve of first compound; for viability, T/C: stronger effect = lower value
Excerpt: Combinatorial screen of targeted agents with the PI3K inhibitors inavolisib, alpelisib, duvelisib, and copanlisib in multi-cell type tumor spheroids
A high-throughput screen of multi-cell type tumor spheroids was designed to identify active combinations of targeted small molecules and PI3K pathway inhibitors. Complex spheroids include a stromal component modeled by human endothelial cells (HUVEC) and fibroblasts modeled by human mesenchymal stem cells (MSCs). The concentration ranges selected for each drug and investigational agent were based upon clinically achievable concentrations if the clinical Cmax of the agent was known.
Compounds. The drugs and investigational agents: inavolisib (NSC800729), alpelisib (NSC765974), duvelisib (NSC772469), copanlisib (NSC816437), ipatasertib (NSC767898), afuresertib (NSC778305), talazoparib (NSC767125), sapanisertib (NSC764658), selumetinib (NSC741078), tovorafenib (DAY101, NSC766906), vemurafenib (NSC761431), ravoxertinib (NSC781343), sotorasib (NSC818433), MRTX1133 (NSC 836407), abemaciclib (NSC 768073), palbociclib (NSC758247), venetoclax (NSC 766270), SY5609 (NSC837396), enzalutamide (NSC755605), and darolutamide (NSC825331), were obtained from the National Cancer Institute (NCI) Developmental Therapeutics Program Chemical Repository. The FDA-approved anticancer drug set is available from the NCI Developmental Therapeutics Program. […] The stock solutions were prepared in dimethyl sulfoxide (DMSO, Sigma-Aldrich, St. Louis, MO, cat. D2650) at 800-fold the tested concentration and stored at -70 degrees C prior to their use. All drugs and investigational agents were tested over a range starting from a high concentration at or near the clinical Cmax and decreasing in half-log increments. If the clinical Cmax for an agent had not been determined, the highest concentration tested was 10 microM.
Cell Culture. All cells were maintained in an incubator at 37 degrees C and 5% CO2 with 95% humidity. The PDC lines were cultured according to standard operating procedures established by the NCI PDMR (https://pdmr.cancer.gov/sops/default.htm). All PDCs were thawed and cultured in Matrigel-coated flasks prepared with a working solution of 1X Ham's F-12 nutrient mix, without supplementation (Invitrogen, Waltham, MA, cat. 11765054), 100 U/mL penicillin-streptomycin (Invitrogen, cat. 15140122), and 2.5% Matrigel (Corning Inc., Corning, NY, cat. 354248) for the first three passages. The 354836-022-R-J1-PDC, 475296-252-R-J1-PDC, and 997726-040-R-J2-PDC lines were cultured in 6A media, which includes advanced DMEM/F-12 (Thermo Fisher Scientific, cat. 12634028), 10 mM HEPES (Thermo Fisher Scientific, cat. 15630080), 1X GlutaMAX supplement (Thermo Fisher Scientific, cat. 35050061), 0.1 mg/mL primocin (InvivoGen, San Diego, CA, cat. ant-pm-2), 10% defined fetal bovine serum, heat inactivated (HyClone Laboratories Inc., Logan, UT, cat. SH30070.03HI), 50% L-WRN conditioned media (ATCC, cat. CRL-3276), 1.25 mM N-Acetyl-L-cysteine (Sigma-Aldrich, cat. A9165), 10 mM nicotinamide (Sigma-Aldrich, cat. N0636), 1X B-27 supplement (Thermo Fisher Scientific, cat. 17504044), 1X N-2 supplement (Thermo Fisher Scientific, cat. 17502048), and 10 microM Y-27632 dihydrochloride (Tocris Bioscience, Bristol, United Kingdom, cat. 1254). The 624824-186-R-J2-PDC line was cultured in 6C/Colon 1B media, which includes all 6A media components plus 50 ng/mL human EGF recombinant protein (Thermo Fisher Scientific, cat. PHG0311). […]

[1] = second compound 0.00316 µM, first compound 0.000316 µM
[2] = second compound 0.00316 µM, first compound 0.001 µM
[3] = second compound 0.00316 µM, first compound 0.00316 µM
[4] = second compound 0.00316 µM, first compound 0.01 µM
[5] = second compound 0.00316 µM, first compound 0.0316 µM
[6] = second compound 0.00316 µM, first compound 0.1 µM
[7] = second compound 0.01 µM, first compound 0.000316 µM
[8] = second compound 0.01 µM, first compound 0.001 µM
[9] = second compound 0.01 µM, first compound 0.00316 µM
[10] = second compound 0.01 µM, first compound 0.01 µM
[11] = second compound 0.01 µM, first compound 0.0316 µM
[12] = second compound 0.01 µM, first compound 0.1 µM
[13] = second compound 0.0316 µM, first compound 0.000316 µM
[14] = second compound 0.0316 µM, first compound 0.001 µM
[15] = second compound 0.0316 µM, first compound 0.00316 µM
[16] = second compound 0.0316 µM, first compound 0.01 µM
[17] = second compound 0.0316 µM, first compound 0.0316 µM
[18] = second compound 0.0316 µM, first compound 0.1 µM
[19] = second compound 0.1 µM, first compound 0.000316 µM
[20] = second compound 0.1 µM, first compound 0.001 µM
[21] = second compound 0.1 µM, first compound 0.00316 µM
[22] = second compound 0.1 µM, first compound 0.01 µM
[23] = second compound 0.1 µM, first compound 0.0316 µM
[24] = second compound 0.1 µM, first compound 0.1 µM
[25] = second compound 0.316 µM, first compound 0.000316 µM
[26] = second compound 0.316 µM, first compound 0.001 µM
[27] = second compound 0.316 µM, first compound 0.00316 µM
[28] = second compound 0.316 µM, first compound 0.01 µM
[29] = second compound 0.316 µM, first compound 0.0316 µM
[30] = second compound 0.316 µM, first compound 0.1 µM
[31] = second compound 1 µM, first compound 0.000316 µM
[32] = second compound 1 µM, first compound 0.001 µM
[33] = second compound 1 µM, first compound 0.00316 µM
[34] = second compound 1 µM, first compound 0.01 µM
[35] = second compound 1 µM, first compound 0.0316 µM
[36] = second compound 1 µM, first compound 0.1 µM
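Also: compound exposure lasted seven days before viability was read.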
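For viability, T/C in this document: percent of vehicle DMSO treated spheroid viability so 100% = untreated.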

Structure (SMILES): CC(=O)c1c(C)c2cnc(Nc3ccc(N4CCNCC4)cn3)nc2n(C2CCCC2)c1=O + CC(Nc1ccc2c(c1)OCCn1cc(N3C(=O)OCC3C(F)F)nc1-2)C(N)=O
- IC50 (second compound 0.00316 µM): 0.0623 µM
- IC50 (second compound 0.01 µM): 0.0617 µM
- IC50 (second compound 0.0316 µM): 0.059 µM
- IC50 (second compound 0.1 µM): 0.0472 µM
- IC50 (second compound 0.316 µM): 0.0499 µM
- IC50 (second compound 1 µM): 0.0262 µM
- viability, T/C [1]: 82.7%
- viability, T/C [2]: 66%
- viability, T/C [3]: 97.2%
- viability, T/C [4]: 90.4%
- viability, T/C [5]: 95.5%
- viability, T/C [6]: 24.6%
- viability, T/C [7]: 81.3%
- viability, T/C [8]: 70.7%
- viability, T/C [9]: 92.6%
- viability, T/C [10]: 86.7%
- viability, T/C [11]: 82.7%
- viability, T/C [12]: 26.5%
- viability, T/C [13]: 67.7%
- viability, T/C [14]: 65.7%
- viability, T/C [15]: 112%
- viability, T/C [16]: 81.4%
- viability, T/C [17]: 98.2%
- viability, T/C [18]: 20.3%
- viability, T/C [19]: 76.2%
- viability, T/C [20]: 81.7%
- viability, T/C [21]: 72.4%
- viability, T/C [22]: 91.3%
- viability, T/C [23]: 66.4%
- viability, T/C [24]: 19.3%
- viability, T/C [25]: 63.5%
- viability, T/C [26]: 65.1%
- viability, T/C [27]: 74.8%
- viability, T/C [28]: 77.2%
- viability, T/C [29]: 70.7%
- viability, T/C [30]: 19.5%
- viability, T/C [31]: 47.9%
- viability, T/C [32]: 57.5%
- viability, T/C [33]: 82.2%
- viability, T/C [34]: 67.3%
- viability, T/C [35]: 47.3%
- viability, T/C [36]: 20.6%

Structure (SMILES): CC(C)n1nc(-c2ccc3oc(N)nc3c2)c2c(N)ncnc21 + CC(Nc1ccc2c(c1)OCCn1cc(N3C(=O)OCC3C(F)F)nc1-2)C(N)=O
- IC50 (second compound 0.00316 µM): 0.0822 µM
- IC50 (second compound 0.01 µM): > 0.1 µM
- IC50 (second compound 0.0316 µM): 0.0646 µM
- IC50 (second compound 0.1 µM): 0.0441 µM
- IC50 (second compound 0.316 µM): 0.0374 µM
- IC50 (second compound 1 µM): 0.00833 µM
- viability, T/C [1]: 102%
- viability, T/C [2]: 113%
- viability, T/C [3]: 80.9%
- viability, T/C [4]: 87.4%
- viability, T/C [5]: 76.6%
- viability, T/C [6]: 43.5%
- viability, T/C [7]: 112%
- viability, T/C [8]: 107%
- viability, T/C [9]: 109%
- viability, T/C [10]: 62.2%
- viability, T/C [11]: 76.9%
- viability, T/C [12]: 51.9%
- viability, T/C [13]: 100%
- viability, T/C [14]: 99.1%
- viability, T/C [15]: 94.6%
- viability, T/C [16]: 84.4%
- viability, T/C [17]: 83.8%
- viability, T/C [18]: 31.6%
- viability, T/C [19]: 102%
- viability, T/C [20]: 96.3%
- viability, T/C [21]: 101%
- viability, T/C [22]: 86.6%
- viability, T/C [23]: 57.3%
- viability, T/C [24]: 32.6%
- viability, T/C [25]: 78.2%
- viability, T/C [26]: 91%
- viability, T/C [27]: 61.5%
- viability, T/C [28]: 61%
- viability, T/C [29]: 61.1%
- viability, T/C [30]: 32.3%
- viability, T/C [31]: 50.6%
- viability, T/C [32]: 63.5%
- viability, T/C [33]: 52%
- viability, T/C [34]: 49.7%
- viability, T/C [35]: 35.2%
- viability, T/C [36]: 31.3%

Structure (SMILES): CCCS(=O)(=O)Nc1ccc(F)c(C(=O)c2c[nH]c3ncc(-c4ccc(Cl)cc4)cc23)c1F + CC(Nc1ccc2c(c1)OCCn1cc(N3C(=O)OCC3C(F)F)nc1-2)C(N)=O
- IC50 (second compound 0.00316 µM): 6.91 µM
- IC50 (second compound 0.01 µM): 7.58 µM
- IC50 (second compound 0.0316 µM): 7.08 µM
- IC50 (second compound 0.1 µM): 6.88 µM
- IC50 (second compound 0.316 µM): 5.83 µM
- IC50 (second compound 1 µM): 5.37 µM
- viability, T/C [5]: 100%
- viability, T/C [6]: 101%
- viability, T/C (second compound 0.00316 µM, first compound 0.316 µM): 162%
- viability, T/C (second compound 0.00316 µM, first compound 1 µM): 103%
- viability, T/C (second compound 0.00316 µM, first compound 3.16 µM): 92.6%
- viability, T/C (second compound 0.00316 µM, first compound 10 µM): 30.3%
- viability, T/C [11]: 136%
- viability, T/C [12]: 89.5%
- viability, T/C (second compound 0.01 µM, first compound 0.316 µM): 136%
- viability, T/C (second compound 0.01 µM, first compound 1 µM): 103%
- viability, T/C (second compound 0.01 µM, first compound 3.16 µM): 118%
- viability, T/C (second compound 0.01 µM, first compound 10 µM): 28.9%
- viability, T/C [17]: 92.3%
- viability, T/C [18]: 101%
- viability, T/C (second compound 0.0316 µM, first compound 0.316 µM): 98.3%
- viability, T/C (second compound 0.0316 µM, first compound 1 µM): 110%
- viability, T/C (second compound 0.0316 µM, first compound 3.16 µM): 100%
- viability, T/C (second compound 0.0316 µM, first compound 10 µM): 28.6%
- viability, T/C [23]: 93.6%
- viability, T/C [24]: 78.1%
- viability, T/C (second compound 0.1 µM, first compound 0.316 µM): 104%
- viability, T/C (second compound 0.1 µM, first compound 1 µM): 118%
- viability, T/C (second compound 0.1 µM, first compound 3.16 µM): 88.5%
- viability, T/C (second compound 0.1 µM, first compound 10 µM): 31.3%
- viability, T/C [29]: 84.2%
- viability, T/C [30]: 92.4%
- viability, T/C (second compound 0.316 µM, first compound 0.316 µM): 84.6%
- viability, T/C (second compound 0.316 µM, first compound 1 µM): 102%
- viability, T/C (second compound 0.316 µM, first compound 3.16 µM): 78.9%
- viability, T/C (second compound 0.316 µM, first compound 10 µM): 24.6%
- viability, T/C [35]: 72.5%
- viability, T/C [36]: 66.9%
- viability, T/C (second compound 1 µM, first compound 0.316 µM): 86.5%
- viability, T/C (second compound 1 µM, first compound 1 µM): 62.9%
- viability, T/C (second compound 1 µM, first compound 3.16 µM): 77%
- viability, T/C (second compound 1 µM, first compound 10 µM): 22.9%

Reference: PubChem BioAssay AID1963966 (Molecular Pharmacology Branch, DTP, NCI, 2024)
